Measurements reported in publication PMC7552917, “Systematic exploration of different E3 ubiquitin ligases: an approach towards potent and selective CDK6 degraders” (Chemical Science, 2020).
Like-named read-outs stand apart in the source and are kept apart here.

What was measured:
[1] = elog D7.4 by chromatographic (HPLC) method; format: physicochemical; conditions: Polaris C18-A column, pH 7.4, read-out: elog D7.4 (experimental distribution coefficient at pH 7.4)
Method: Supplementary Information: Physical Chemistry
N. Molecular Descriptor Calculation […]
O. Physicochemical Measurements
The determination of the elog D7.4 values was performed by a chromatographic method according to […]
The column was a Polaris C18-A column (2 mm I.D., 50 mm length, 3 μm particle size) from Agilent Technologies. A linear mobile phase gradient was applied with […] TRIS buffer adjusted to pH 7.4 and MeCN. Therefore, the gradient was run from 5% […]
between the runs with a constant flow-rate of 0.8 ml/min and a temperature of 25 °C. The output wavelength of the detector was set to 269.5 nm. In order to calibrate the log D7.4 to the retention time, 6 different drugs with known log D7.4 were dissolved in DMSO and 10 µl were injected […]
Approximately 1 mg of the samples was dissolved in DMSO and 5 µl were injected. Analyses were conducted in duplicates. Subsequently, the mean retention times of the analytes were taken to calculate their log D7.4 values with aid of the calibration line.

CDK4 = target: T1, CDK4 (Homo sapiens, UniProt P11802); test: CDK4 degradation, western blot of MM.1S cells; format: cell-based; conditions: 16 h; for Effect of MDM2 ligands on CDK4 levels: indicated concentrations
T1 construct: Percentage values are normalized to DMSO-treated MM.1S cells and the respective loading controls; endogenous in cells; host or cells: MM.1S (human multiple myeloma)
T1 sequence (P11802 whole entry): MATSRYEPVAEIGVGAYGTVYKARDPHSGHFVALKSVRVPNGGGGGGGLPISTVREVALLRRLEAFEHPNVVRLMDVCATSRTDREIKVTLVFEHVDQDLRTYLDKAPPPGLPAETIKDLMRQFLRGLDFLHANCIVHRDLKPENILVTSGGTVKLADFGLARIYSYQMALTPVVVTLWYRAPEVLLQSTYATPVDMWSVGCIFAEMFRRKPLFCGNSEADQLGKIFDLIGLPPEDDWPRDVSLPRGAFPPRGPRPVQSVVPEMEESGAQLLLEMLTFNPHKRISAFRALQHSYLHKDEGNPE
Description: (§1) We determined the concentration of both kinases and CRBN, the latter in order to control the expression of the corresponding ligase. Since IMiDs, such as pomalidomide, cause the degradation of the lymphoid transcription factors Ikaros (IKZF1) and Aiolos (IKZF3) through the involvement of CRBN,[53],[54] this undesired effect was inspected. […] As further characteristics of CDK4/6d, the desired selectivity of CDK6 over CDK4 degradation and the unwanted influence on the IKZF1 concentration were determined. […] Next, we determined the concentration- and time-dependent activity of 11 (Fig. S2, ESI ^†).
(§2) Multiple myeloma, leukaemia, and murine cell lines:
(§3) After respective designated treatments, cells were washed with 1× PBS and lysed in IP lysis buffer (Pierce) containing HALT protease and phosphatase inhibitor cocktail (Thermo Scientific). Sodium dodecyl sulfate-polyacrylamide gel electrophoresis (SDS-PAGE) was performed with 5–20 µg of protein loaded per sample. Gel electrophoresis was carried out at a constant voltage. Proteins were transferred onto Immobilon-P transfer membranes (Millipore). Membranes were blocked with 5% milk in Tris Buffered Saline with 0.05% Tween 20 (TBS-T) followed by overnight incubation at 4 °C with shaking in primary antibodies diluted in 5% BSA in TBS-T. After incubation with respective secondary HRP-conjugated antibodies diluted in 5% milk in TBST, detection of proteins was performed using either WesternBright ECL HRP substrate or WesternBright Sirius HRP substrate (Advansta). Chemiluminescence was detected with ChemiDoc™ XRS+ System (Bio-Rad). For further detection of other proteins on the same membrane, membranes were subjected to incubation in Restore Western Blot Stripping Buffer, followed by re-blocking, and further probing of proteins was […]

CDK6 = target: T2, CDK6 (Homo sapiens, UniProt Q00534); test: CDK6 degradation, western blot of MM.1S cells; format: cell-based; conditions: 16 h
T2 construct: Percentage values are normalized to DMSO-treated MM.1S cells and the respective loading controls; endogenous in cells; host or cells: MM.1S (human multiple myeloma)
T2 sequence (Q00534 whole entry): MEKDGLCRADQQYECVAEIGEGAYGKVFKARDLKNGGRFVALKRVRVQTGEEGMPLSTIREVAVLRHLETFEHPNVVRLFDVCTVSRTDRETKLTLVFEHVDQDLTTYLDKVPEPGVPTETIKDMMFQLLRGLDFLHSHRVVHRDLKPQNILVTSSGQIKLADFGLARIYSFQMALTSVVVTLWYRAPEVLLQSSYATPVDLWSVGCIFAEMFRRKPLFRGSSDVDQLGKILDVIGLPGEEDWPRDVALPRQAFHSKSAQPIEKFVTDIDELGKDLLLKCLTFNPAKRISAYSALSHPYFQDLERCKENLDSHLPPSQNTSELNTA
Description: as §1, §2, §3

IKZF1 = target: T3, IKZF1 (Homo sapiens, UniProt Q13422+Q96SW2); test: Neosubstrate IKZF1 degradation, western blot of MM.1S cells; format: cell-based; conditions: 16 h, normalized to DMSO (100%); for remaining activity at 0.1 µM: MM1.S, read-out: D IKZF1: remaining IKZF1 levels;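 as to all read-outs here: test concentration 0.1 µM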
T3 construct: endogenous in cells; host or cells: MM.1S (human multiple myeloma)
T3 sequence (Q13422 whole entry): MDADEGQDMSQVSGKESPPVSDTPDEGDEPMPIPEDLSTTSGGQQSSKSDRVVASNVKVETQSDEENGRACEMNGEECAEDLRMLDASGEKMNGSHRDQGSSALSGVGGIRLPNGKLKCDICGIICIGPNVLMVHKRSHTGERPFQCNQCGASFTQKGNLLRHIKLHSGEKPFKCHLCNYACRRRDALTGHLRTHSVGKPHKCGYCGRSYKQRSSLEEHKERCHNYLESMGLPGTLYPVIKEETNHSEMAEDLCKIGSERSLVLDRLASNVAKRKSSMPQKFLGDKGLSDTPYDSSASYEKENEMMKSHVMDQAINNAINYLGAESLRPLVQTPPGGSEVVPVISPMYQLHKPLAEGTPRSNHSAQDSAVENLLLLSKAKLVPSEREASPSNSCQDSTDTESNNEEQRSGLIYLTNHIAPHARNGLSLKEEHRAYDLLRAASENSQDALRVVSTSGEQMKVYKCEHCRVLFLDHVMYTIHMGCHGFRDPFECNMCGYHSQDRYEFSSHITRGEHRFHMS
T3 sequence (Q96SW2 whole entry): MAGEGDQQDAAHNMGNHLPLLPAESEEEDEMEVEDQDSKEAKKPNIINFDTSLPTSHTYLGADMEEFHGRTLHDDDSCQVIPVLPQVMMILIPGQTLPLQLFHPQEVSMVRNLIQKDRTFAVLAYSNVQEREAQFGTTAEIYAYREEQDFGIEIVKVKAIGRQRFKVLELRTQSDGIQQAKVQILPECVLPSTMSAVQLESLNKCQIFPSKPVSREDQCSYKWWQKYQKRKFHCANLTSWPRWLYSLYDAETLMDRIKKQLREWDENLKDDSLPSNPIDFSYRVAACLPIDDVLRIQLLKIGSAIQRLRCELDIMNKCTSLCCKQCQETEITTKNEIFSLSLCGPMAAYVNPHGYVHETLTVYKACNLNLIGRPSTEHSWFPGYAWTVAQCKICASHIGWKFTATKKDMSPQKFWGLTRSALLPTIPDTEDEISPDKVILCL
T3 sequence (Q16531 whole entry partner): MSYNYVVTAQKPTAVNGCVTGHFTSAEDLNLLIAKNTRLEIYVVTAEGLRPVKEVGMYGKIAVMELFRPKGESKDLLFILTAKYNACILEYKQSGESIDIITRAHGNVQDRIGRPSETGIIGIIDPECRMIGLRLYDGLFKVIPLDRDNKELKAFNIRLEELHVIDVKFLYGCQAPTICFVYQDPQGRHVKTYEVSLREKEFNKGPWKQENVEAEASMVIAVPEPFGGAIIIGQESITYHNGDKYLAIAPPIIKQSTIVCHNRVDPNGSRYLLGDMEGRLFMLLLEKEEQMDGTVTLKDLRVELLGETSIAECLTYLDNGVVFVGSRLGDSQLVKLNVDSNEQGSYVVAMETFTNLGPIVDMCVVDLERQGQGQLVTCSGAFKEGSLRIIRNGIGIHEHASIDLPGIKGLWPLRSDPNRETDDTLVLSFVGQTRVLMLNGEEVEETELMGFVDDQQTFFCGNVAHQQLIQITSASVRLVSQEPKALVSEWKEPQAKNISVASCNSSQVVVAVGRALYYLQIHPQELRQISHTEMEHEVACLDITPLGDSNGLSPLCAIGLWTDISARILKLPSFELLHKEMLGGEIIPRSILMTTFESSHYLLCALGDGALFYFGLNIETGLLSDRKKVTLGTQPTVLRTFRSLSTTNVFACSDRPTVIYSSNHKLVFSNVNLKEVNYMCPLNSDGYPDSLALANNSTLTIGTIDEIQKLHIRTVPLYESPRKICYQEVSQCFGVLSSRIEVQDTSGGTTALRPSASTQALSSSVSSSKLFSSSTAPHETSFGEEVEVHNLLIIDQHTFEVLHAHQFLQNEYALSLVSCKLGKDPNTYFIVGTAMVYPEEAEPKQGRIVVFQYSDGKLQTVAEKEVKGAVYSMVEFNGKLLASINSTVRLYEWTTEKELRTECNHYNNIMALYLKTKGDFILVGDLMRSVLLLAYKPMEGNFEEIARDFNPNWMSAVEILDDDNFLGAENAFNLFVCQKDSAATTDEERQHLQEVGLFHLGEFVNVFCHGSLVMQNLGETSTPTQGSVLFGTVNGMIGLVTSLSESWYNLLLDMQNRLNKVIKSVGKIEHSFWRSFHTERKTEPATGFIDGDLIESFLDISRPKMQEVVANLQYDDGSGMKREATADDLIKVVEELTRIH
Description: as §1, §2, §3

[2] = MM1.S, 0.1 μM, MM.1S cells, normalized to DMSO (100%), read-out: D CDK4: remaining CDK4 levels
[3] = MM1.S, 0.1 μM, MM.1S cells, normalized to DMSO (100%), read-out: D CDK6: remaining CDK6 levels
[4] = 1 μM, MM.1S cells, normalized to DMSO (100%)

| chromatographic logD [1] | remaining activity at 0.1 µM (CDK4; [2]) [%] | remaining activity at 0.1 µM (CDK6; [3]) [%] | Selectivity ratio D CDK4/D CDK6 for the degradation of CDK6 over CDK4 (CDK6; 0.1 μM, MM.1S cells) | remaining activity at 0.1 µM (IKZF1) [%] | Compound | also measured |
| --- | --- | --- | --- | --- | --- | --- |
| 4.8 | > 95 | 40 |  |  | CC(=O)c1c(C)c2cnc(Nc3ccc(N4CCN(CCCCCCOCCCCCOCCCCC(=O)N[C@H](C(=O)N5C[C@H](O)C[C@H]5C(=O)NCc5ccc(-c6scnc6C)cc5)C(C)(C)C)CC4)cn3)nc2n(C2CCCC2)c1=O [compound 25] |  |
| 3.1 | 26 | 7.8 | 3.3 | 0.8 | CC(=O)c1c(C)c2cnc(Nc3ccc(N4CCN(C(=O)CCCCOCCOCCOCCNc5cccc6c5C(=O)N(C5CCC(=O)NC5=O)C6=O)CC4)cn3)nc2n(C2CCCC2)c1=O (centres unmarked) [compound 14] |  |
| 3.1 | 91 | 65 | 1.4 | 56 | CC(=O)c1c(C)c2cnc(Nc3ccc(N4CCN(C(=O)CCC(=O)NCCCOCCCCOCCCNc5cccc6c5C(=O)N(C5CCC(=O)NC5=O)C6=O)CC4)cn3)nc2n(C2CCCC2)c1=O (centres unmarked) [compound 15] |  |
|  | 78 | 83 | 0.9 |  | COc1cc(C(=O)O)ccc1NC(=O)[C@@H]1N[C@@H](CC(C)(C)C)[C@](C#N)(c2ccc(Cl)cc2F)[C@H]1c1cccc(Cl)c1F [6 (Idasanutlin), idasanutlin, reference compound] | remaining activity at 1 µM (CDK4; MM1.S, 1 μM, MM.1S cells, normalized to DMSO (100%), read-out: D CDK4: remaining CDK4 levels): 40%; Effect of MDM2 ligands on CDK4 levels (CDK4; MM.1S cells): dose-dependent effects on CDK4 levels; remaining activity at 1 µM (CDK6; MM1.S, 1 μM, MM.1S cells, normalized to DMSO (100%), read-out: D CDK6: remaining CDK6 levels): 70% |
| 4.6 | 76 | 32 | 2.4 | 6.7 | CC(=O)c1c(C)c2cnc(Nc3ccc(N4CCN(C(=O)CCCCOCCCCCOCCCCCCNc5cccc6c5C(=O)N(C5CCC(=O)NC5=O)C6=O)CC4)cn3)nc2n(C2CCCC2)c1=O (centres unmarked) [compound 16] |  |
| 3.7 | 86 | 16 | 5.4 | 5.8 | CC(=O)c1c(C)c2cnc(Nc3ccc(N4CCN(C(=O)CCCCCOCCOCCOCCOCCOCCOCCCCCCNc5cccc6c5C(=O)N(C5CCC(=O)NC5=O)C6=O)CC4)cn3)nc2n(C2CCCC2)c1=O (centres unmarked) [compound 20] |  |
| 3.6 | 95 | > 95 |  | 93 | CC(=O)c1c(C)c2cnc(Nc3ccc(N4CCN(C(=O)CCCCCNc5cccc6c5C(=O)N(C5CCC(=O)N(C)C5=O)C6=O)CC4)cn3)nc2n(C2CCCC2)c1=O (centres unmarked) [compound 21] |  |
| 2.8 | 15 | 7.7 | 1.9 | 1 | CC(=O)c1c(C)c2cnc(Nc3ccc(N4CCN(C(=O)COCCOCCOCCNc5cccc6c5C(=O)N(C5CCC(=O)NC5=O)C6=O)CC4)cn3)nc2n(C2CCCC2)c1=O (centres unmarked) [compound 13] |  |
| 3.2 | > 95 | 29 |  |  | CC(=O)c1c(C)c2cnc(Nc3ccc(N4CCN(CCOCCOCCOc5cc(-c6scnc6C)ccc5CNC(=O)[C@@H]5C[C@@H](O)CN5C(=O)[C@H](C(C)C)N5Cc6ccccc6C5=O)CC4)cn3)nc2n(C2CCCC2)c1=O [compound 29] |  |
| 2.7 | 61 | 8.2 | 7.4 |  | CC(=O)c1c(C)c2cnc(Nc3ccc(N4CCN(CCOCCOCC(=O)N[C@H](C(=O)N5C[C@H](O)C[C@H]5C(=O)NCc5ccc(-c6scnc6C)cc5)C(C)(C)C)CC4)cn3)nc2n(C2CCCC2)c1=O [compound 23] |  |
| 3 | 65 | 1.4 | 46 |  | CC(=O)c1c(C)c2cnc(Nc3ccc(N4CCN(CCOCCOCCOc5cc(-c6scnc6C)ccc5CNC(=O)[C@@H]5C[C@@H](O)CN5C(=O)[C@@H](NC(=O)C5(C#N)CC5)C(C)(C)C)CC4)cn3)nc2n(C2CCCC2)c1=O [compound 33] |  |
|  | 91 | 91 |  |  | Nc1cccc2c1C(=O)N(C1CCC(=O)NC1=O)C2=O (centres unmarked) [3 (POM), pomalidomide, reference compound] | D IKZF1: remaining IKZF1 levels (IKZF1; 0.1 μM): 17% |
| 4.4 | 57 | 17 | 3.4 | 5.9 | CC(=O)c1c(C)c2cnc(Nc3ccc(N4CCN(C(=O)CCCCCOCCCCOCCCCOCCCCNc5cccc6c5C(=O)N(C5CCC(=O)NC5=O)C6=O)CC4)cn3)nc2n(C2CCCC2)c1=O (centres unmarked) [compound 18] |  |
|  |  |  |  |  | CC(C)[C@@H](CS(=O)(=O)C(C)C)N1C(=O)[C@@](C)(CC(=O)O)C[C@H](c2cccc(Cl)c2)[C@H]1c1ccc(Cl)cc1 [AMG232, reference compound] | Effect of MDM2 ligands on CDK4 levels (CDK4; MM.1S cells): diminished CDK4 levels in a dose-dependent manner |
| 3.1 | 94 | 69 | 1.4 |  | CC(=O)c1c(C)c2cnc(Nc3ccc(N4CCN(CCOCCOCCOCCOc5cc(-c6scnc6C)ccc5CNC(=O)[C@@H]5C[C@@H](O)CN5C(=O)[C@H](C(C)C)N5Cc6ccccc6C5=O)CC4)cn3)nc2n(C2CCCC2)c1=O [compound 30] |  |
| 5.3 | > 95 | 65 |  |  | CC(=O)c1c(C)c2cnc(Nc3ccc(N4CCN(CCCCCCOCCCCCOCCCCCOc5cc(-c6scnc6C)ccc5CNC(=O)[C@@H]5C[C@@H](O)CN5C(=O)[C@H](C(C)C)N5Cc6ccccc6C5=O)CC4)cn3)nc2n(C2CCCC2)c1=O [compound 31] |  |
| 4.5 | > 95 | 62 |  |  | CC(=O)c1c(C)c2cnc(Nc3ccc(N4CCN(CCCCCCCCOc5cc(-c6scnc6C)ccc5CNC(=O)[C@@H]5C[C@@H](O)CN5C(=O)[C@H](C(C)C)N5Cc6ccccc6C5=O)CC4)cn3)nc2n(C2CCCC2)c1=O [compound 28] |  |
| 3.5 | 80 | 14 | 5.7 |  | CC(=O)c1c(C)c2cnc(Nc3ccc(N4CCN(CCOCCOCCOCC(=O)N[C@H](C(=O)N5C[C@H](O)C[C@H]5C(=O)NCc5ccc(-c6scnc6C)cc5)C(C)(C)C)CC4)cn3)nc2n(C2CCCC2)c1=O [compound 24] |  |

| Compound | chromatographic logD [1] | remaining activity at 0.1 µM (CDK4; [2]) [%] | remaining activity at 0.1 µM (CDK6; [3]) [%] | Selectivity ratio D CDK4/D CDK6 for the degradation of CDK6 over CDK4 (CDK6; 0.1 μM, MM.1S cells) | remaining activity at 0.1 µM (IKZF1) [%] | also measured |
| --- | --- | --- | --- | --- | --- | --- |
| CN[C@H](C)C(=O)N[C@H](C(=O)N1C[C@@H](Oc2cccc(OCCOCCOCCOCCN3CCN(c4ccc(Nc5ncc6c(C)c(C(C)=O)c(=O)n(C7CCCC7)c6n5)nc4)CC3)c2)C[C@H]1C(=O)N[C@@H]1CCCc2ccccc21)C1CCCCC1 [compound 36] | 4.5 |  |  |  |  | D CDK4: remaining CDK4 levels (CDK4; [4]): failed to degrade; remaining activity at 0.1 µM (CDK4; MM1.S, read-out: D CDK4: remaining CDK4 levels): > 95%; D CDK6: remaining CDK6 levels (CDK6; [4]): failed to degrade; remaining activity at 0.1 µM (CDK6; MM1.S, read-out: D CDK6: remaining CDK6 levels): > 95% |
